Assay results from ChEMBL document CHEMBL3351369, “Phenylpropanoid acid esters from Korean propolis and their antioxidant activities” (Bioorg Med Chem Lett, 2014).

Key:
[1] = Antioxidant activity assessed as DPPH radical scavenging activity up to 1 mM after 30 mins by spectrophotometry; format: physicochemical; conditions: 0.5 h
[2] = Ratio of compound IC50 to trolox IC50 for DPPH radical scavenging activity after 30 mins by spectrophotometry
[3] = Ratio of compound IC50 to trolox IC50 for ABTS radical scavenging activity after 12 hrs by spectrophotometry
[4] = Antioxidant activity assessed as ABTS radical scavenging activity up to 1 mM after 12 hrs by spectrophotometry; format: physicochemical
[5] = Antioxidant activity assessed as DPPH radical scavenging activity after 30 mins by spectrophotometry; format: physicochemical; conditions: 0.5 h
[6] = Antioxidant activity assessed as hydroxyl radical scavenging activity at 50 uM after 30 mins by Fenton reaction-induced DNA single strand breakage method; format: physicochemical; conditions: 0.5 h
[7] = Antioxidant activity assessed as ABTS radical scavenging activity after 12 hrs by spectrophotometry; format: physicochemical

Structure (SMILES)	Activity [1]	Activity [4]	Activity [5]	Activity [6]	Activity [7]	Ratio IC50 [2]	Ratio IC50 [3]
O=C(/C=C/c1ccc(O)cc1)OCc1ccccc1	Not Active	Not Active	–	–	–	> 500	> 500
O=C(/C=C/c1ccccc1)OC/C=C/c1ccccc1	Not Active	Not Active	–	–	–	> 500	> 500
COc1ccc(/C=C/C(=O)OC/C=C/c2ccccc2)cc1OC	–	–	–	–	–	> 500	> 500
Cc1c(C)c2c(c(C)c1O)CCC(C)(C(=O)O)O2 (stereo not given)	–	–	–	–	–	1	1
O=C(/C=C/c1ccccc1)OCCc1ccccc1 [PHENETHYL CINNAMATE]	Not Active	Not Active	–	–	–	> 500	> 500

More lines, main results first:

Activity [1]	Activity [4]	Activity [5]	Activity [6]	Activity [7]	Structure (SMILES)	Ratio IC50 [2]	Ratio IC50 [3]
–	–	Dose-dependent effect	Not Active	Dose-dependent effect	COc1cc(/C=C/C(=O)OCC=C(C)C)ccc1O	105	23.1
Not Active	Not Active	–	–	–	O=C(/C=C/c1ccc(O)cc1)OC/C=C/c1ccccc1	> 500	> 500
–	–	Dose-dependent effect	Active	Dose-dependent effect	O=C(/C=C/c1ccc(O)c(O)c1)OCc1ccccc1 [BENZYL CAFFEATE]	3.86	3.42
–	–	Dose-dependent effect	Not Active	Dose-dependent effect	COc1cc(/C=C/C(=O)OCc2ccccc2)ccc1O [BENZYL FERULATE]	92.1	24.8
–	–	Dose-dependent effect	Active	Dose-dependent effect	O=C(/C=C/c1ccc(O)c(O)c1)OCCc1ccccc1 [CAFFEIC ACID PHENETHYL ESTER]	0.46	6.3
–	–	Dose-dependent effect	Active	Dose-dependent effect	CCOC(=O)/C=C/c1ccc(O)c(O)c1 [ETHYL CAFFEATE]	6.3	10.6
